# Laboratory results from patent publication US9707305B2, “Formulas for diagnosing and treating hormone-dependent cancers and cancers of the organs responsible for steroid hormone synthesis” (Commissariat à l'énergie atomique et aux énergies …, priority 2011, dated 2017).
# Experiment: Biodistribution of the mixture of three free tracers (not formulated as nano-emulsion), comparative
# Assay type: in vivo
# Conditions: FVB female mouse
# Procedure: In the following examples, the radioactivity was counted with the TRiCarb Counter (Ref: Packard, Liquid Scintillation Analyzers; Models 2200CA).
# Fluobeam 700 (Fluoptics) is the apparatus with which the whole of the organs from the biodistribution were analyzed in fluorescence as well as the one with which the biodistribution kinetics of the nano-emulsions were established in vivo. This imaging system allows viewing of the fluorescence in spectral bands from 700 to 850 nm for a 650 nm excitation. The apparatus consists of an electric case containing the laser of class 3B, its power supply and an optical head containing the CCD camera.
# As a comparison, a mixture of three tracers ([3H]CHE, [14C]CO and DiD) (not formulated as a nano-emulsion) was injected in order to observe the distribution of the tracers in the absence of droplets being used as a distribution carrier.
# [1] = 2 h after injection of free tracers (not nano-emulsion)
# [2] = 6 h after injection of free tracers (not nano-emulsion)
# [3] = 16 h after injection of free tracers (not nano-emulsion)
# [4] = 24 h after injection of free tracers (not nano-emulsion)
structure (smiles),measurement,setting,value
"CCCCCCCCCCCCCCCCO[C@H]1CC[C@@]2(C)C(=CC[C@H]3[C@@H]4CC[C@H]([C@H](C)CCCC(C)C)[C@@]4(C)CC[C@@H]32)C1 [[3H]CHE, cholesteryl hexadecylether]","biodistribution, Adrenal glands (MEAN)",[1],0.17 % of injected dose per gram of
same,"biodistribution, Brain (MEAN)",[1],0.00 % of injected dose per gram of
same,"biodistribution, Fat (MEAN)",[1],0.02 % of injected dose per gram of
same,"biodistribution, Heart (MEAN)",[1],0.08 % of injected dose per gram of
same,"biodistribution, Intestine (MEAN)",[1],0.03 % of injected dose per gram of
same,"biodistribution, Kidney (MEAN)",[1],0.09 % of injected dose per gram of
same,"biodistribution, Liver (MEAN)",[1],1.76 % of injected dose per gram of
same,"biodistribution, Lung (MEAN)",[1],29.10 % of injected dose per gram of
same,"biodistribution, Muscle (MEAN)",[1],0.04 % of injected dose per gram of
same,"biodistribution, Ovary (MEAN)",[1],0.04 % of injected dose per gram of
same,"biodistribution, Pancreas (MEAN)",[1],0.05 % of injected dose per gram of
same,"biodistribution, Salivary gland (MEAN)",[1],0.01 % of injected dose per gram of
same,"biodistribution, Spleen (MEAN)",[1],1.55 % of injected dose per gram of
same,"biodistribution, Uterus (MEAN)",[1],0.02 % of injected dose per gram of
same,"biodistribution, Adrenal glands (MEAN)",[2],0.36 % of injected dose per gram of
same,"biodistribution, Brain (MEAN)",[2],0.02 % of injected dose per gram of
same,"biodistribution, Fat (MEAN)",[2],0.05 % of injected dose per gram of
same,"biodistribution, Heart (MEAN)",[2],0.30 % of injected dose per gram of
same,"biodistribution, Intestine (MEAN)",[2],0.15 % of injected dose per gram of
same,"biodistribution, Kidney (MEAN)",[2],0.41 % of injected dose per gram of
same,"biodistribution, Liver (MEAN)",[2],3.23 % of injected dose per gram of
same,"biodistribution, Lung (MEAN)",[2],83.99 % of injected dose per gram of
same,"biodistribution, Muscle (MEAN)",[2],0.03 % of injected dose per gram of
same,"biodistribution, Ovary (MEAN)",[2],0.07 % of injected dose per gram of
same,"biodistribution, Pancreas (MEAN)",[2],0.09 % of injected dose per gram of
same,"biodistribution, Salivary gland (MEAN)",[2],0.09 % of injected dose per gram of
same,"biodistribution, Uterus (MEAN)",[2],0.04 % of injected dose per gram of
same,"biodistribution, Adrenal gland (MEAN)",[3],0.47 % of injected dose per gram of
same,"biodistribution, Brain (MEAN)",[3],0.02 % of injected dose per gram of
same,"biodistribution, Fat (MEAN)",[3],0.02 % of injected dose per gram of
same,"biodistribution, Heart (MEAN)",[3],0.35 % of injected dose per gram of
same,"biodistribution, Intestine (MEAN)",[3],0.13 % of injected dose per gram of
same,"biodistribution, Kidney (MEAN)",[3],0.53 % of injected dose per gram of
same,"biodistribution, Liver (MEAN)",[3],6.95 % of injected dose per gram of
same,"biodistribution, Lung (MEAN)",[3],124.35 % of injected dose per gram of
same,"biodistribution, Muscle (MEAN)",[3],0.05 % of injected dose per gram of
same,"biodistribution, Ovary (MEAN)",[3],0.19 % of injected dose per gram of
same,"biodistribution, Pancreas (MEAN)",[3],0.04 % of injected dose per gram of
same,"biodistribution, Salivary gland (MEAN)",[3],0.05 % of injected dose per gram of
same,"biodistribution, Spleen (MEAN)",[3],4.17 % of injected dose per gram of
same,"biodistribution, Uterus (MEAN)",[3],0.03 % of injected dose per gram of
same,"biodistribution, Adrenal gland (MEAN)",[4],0.31 % of injected dose per gram of
same,"biodistribution, Brain (MEAN)",[4],0.03 % of injected dose per gram of
same,"biodistribution, Fat (MEAN)",[4],1.42 % of injected dose per gram of
same,"biodistribution, Heart (MEAN)",[4],0.12 % of injected dose per gram of
same,"biodistribution, Intestine (MEAN)",[4],0.07 % of injected dose per gram of
same,"biodistribution, Kidney (MEAN)",[4],1.12 % of injected dose per gram of
same,"biodistribution, Liver (MEAN)",[4],1.12 % of injected dose per gram of
same,"biodistribution, Lung (MEAN)",[4],6.37 % of injected dose per gram of
same,"biodistribution, Muscle (MEAN)",[4],0.11 % of injected dose per gram of
same,"biodistribution, Ovary (MEAN)",[4],0.08 % of injected dose per gram of
same,"biodistribution, Pancreas (MEAN)",[4],0.03 % of injected dose per gram of
same,"biodistribution, Salivary gland (MEAN)",[4],0.14 % of injected dose per gram of
same,"biodistribution, Spleen (MEAN)",[4],10.63 % of injected dose per gram of
same,"biodistribution, Uterus (MEAN)",[4],0.34 % of injected dose per gram of
same,accumulation of the free radioactive tracers in the lungs,"Tables 2 to 5 (2 to 24 h), free tracers",strong accumulation
"CCCCCCCCCCCCCCCCCCN1/C(=C/C=C/C=C/C2=[N+](CCCCCCCCCCCCCCCCCC)c3ccccc3C2(C)C)C(C)(C)c2ccccc21.[O-][Cl+3]([O-])([O-])[O-] [DiD, l,r-dioctadécyl-3,3,3′,3′-tetramethylindodicarbocyanine (DiD) perchlorate]","fluorescence intensity, Adrenal glands (MEAN)",[1],"730.45 photons per pixel, reduced to"
same,"fluorescence intensity, Brain (MEAN)",[1],"439.56 photons per pixel, reduced to"
same,"fluorescence intensity, Fat (MEAN)",[1],"280.30 photons per pixel, reduced to"
same,"fluorescence intensity, Heart (MEAN)",[1],"487.37 photons per pixel, reduced to"
same,"fluorescence intensity, Intestine (MEAN)",[1],"451.58 photons per pixel, reduced to"
same,"fluorescence intensity, Kidney (MEAN)",[1],"862.35 photons per pixel, reduced to"
same,"fluorescence intensity, Liver (MEAN)",[1],"2477.20 photons per pixel, reduced to"
same,"fluorescence intensity, Lung (MEAN)",[1],"848.08 photons per pixel, reduced to"
same,"fluorescence intensity, Muscle (MEAN)",[1],"211.84 photons per pixel, reduced to"
same,"fluorescence intensity, Ovary (MEAN)",[1],"954.70 photons per pixel, reduced to"
same,"fluorescence intensity, Pancreas (MEAN)",[1],"466.58 photons per pixel, reduced to"
same,"fluorescence intensity, Salivary gland (MEAN)",[1],"399.58 photons per pixel, reduced to"
same,"fluorescence intensity, Spleen (MEAN)",[1],"1162.07 photons per pixel, reduced to"
same,"fluorescence intensity, Uterus (MEAN)",[1],"694.28 photons per pixel, reduced to"
same,"fluorescence intensity, Adrenal glands (MEAN)",[2],"208.14 photons per pixel, reduced to"
same,"fluorescence intensity, Brain (MEAN)",[2],"116.17 photons per pixel, reduced to"
same,"fluorescence intensity, Fat (MEAN)",[2],"234.61 photons per pixel, reduced to"
same,"fluorescence intensity, Heart (MEAN)",[2],"346.63 photons per pixel, reduced to"
same,"fluorescence intensity, Intestine (MEAN)",[2],"363.09 photons per pixel, reduced to"
same,"fluorescence intensity, Kidney (MEAN)",[2],"573.78 photons per pixel, reduced to"
same,"fluorescence intensity, Liver (MEAN)",[2],"2293.21 photons per pixel, reduced to"
same,"fluorescence intensity, Lung (MEAN)",[2],"433.52 photons per pixel, reduced to"
same,"fluorescence intensity, Muscle (MEAN)",[2],"108.34 photons per pixel, reduced to"
same,"fluorescence intensity, Ovary (MEAN)",[2],"250.27 photons per pixel, reduced to"
same,"fluorescence intensity, Pancreas (MEAN)",[2],"191.73 photons per pixel, reduced to"
same,"fluorescence intensity, Salivary gland (MEAN)",[2],"232.98 photons per pixel, reduced to"
same,"fluorescence intensity, Spleen (MEAN)",[2],"3224.12 photons per pixel, reduced to"
same,"fluorescence intensity, Uterus (MEAN)",[2],"506.03 photons per pixel, reduced to"
same,"fluorescence intensity, Adrenal gland (MEAN)",[3],"1683.36 photons per pixel, reduced to"
same,"fluorescence intensity, Brain (MEAN)",[3],"−24.23 photons per pixel, reduced to"
same,"fluorescence intensity, Fat (MEAN)",[3],"295.69 photons per pixel, reduced to"
same,"fluorescence intensity, Heart (MEAN)",[3],"186.72 photons per pixel, reduced to"
same,"fluorescence intensity, Intestine (MEAN)",[3],"505.69 photons per pixel, reduced to"
same,"fluorescence intensity, Kidney (MEAN)",[3],"382.29 photons per pixel, reduced to"
same,"fluorescence intensity, Liver (MEAN)",[3],"2954.59 photons per pixel, reduced to"
same,"fluorescence intensity, Lung (MEAN)",[3],"370.94 photons per pixel, reduced to"
same,"fluorescence intensity, Muscle (MEAN)",[3],"93.88 photons per pixel, reduced to"
same,"fluorescence intensity, Ovary (MEAN)",[3],"729.53 photons per pixel, reduced to"
same,"fluorescence intensity, Pancreas (MEAN)",[3],"101.87 photons per pixel, reduced to"
same,"fluorescence intensity, Salivary gland (MEAN)",[3],"271.01 photons per pixel, reduced to"
same,"fluorescence intensity, Spleen (MEAN)",[3],"3403.29 photons per pixel, reduced to"
same,"fluorescence intensity, Uterus (MEAN)",[3],"665.40 photons per pixel, reduced to"
same,"fluorescence intensity, Adrenal gland (MEAN)",[4],"653.68 photons per pixel, reduced to"
same,"fluorescence intensity, Brain (MEAN)",[4],"57.68 photons per pixel, reduced to"
same,"fluorescence intensity, Fat (MEAN)",[4],"344.99 photons per pixel, reduced to"
same,"fluorescence intensity, Heart (MEAN)",[4],"285.67 photons per pixel, reduced to"
same,"fluorescence intensity, Intestine (MEAN)",[4],"354.94 photons per pixel, reduced to"
same,"fluorescence intensity, Kidney (MEAN)",[4],"397.90 photons per pixel, reduced to"
same,"fluorescence intensity, Liver (MEAN)",[4],"2663.45 photons per pixel, reduced to"
same,"fluorescence intensity, Lung (MEAN)",[4],"300.36 photons per pixel, reduced to"
same,"fluorescence intensity, Muscle (MEAN)",[4],"289.03 photons per pixel, reduced to"
same,"fluorescence intensity, Ovary (MEAN)",[4],"989.32 photons per pixel, reduced to"
same,"fluorescence intensity, Pancreas (MEAN)",[4],"158.45 photons per pixel, reduced to"
same,"fluorescence intensity, Salivary gland (MEAN)",[4],"187.28 photons per pixel, reduced to"
same,"fluorescence intensity, Spleen (MEAN)",[4],"3880.70 photons per pixel, reduced to"
same,"fluorescence intensity, Uterus (MEAN)",[4],"636.69 photons per pixel, reduced to"
same,"accumulation in the liver and the spleen, tracer DiD alone","Tables 2 to 5 (2 to 24 h), free tracer",Strong accumulation
